{
  "source": "patent US20070259327A1",
  "about": "“Cryopreservation medium and cryopreservation method for tissues and cells” (BioVerde. Inc., priority 2006, published 2007)",
  "format_in_all_cases": "cell-based, pigs",
  "key": {"Islets [1]": {"test_system": "Islets", "experiment": "Functionality of post-cryopreservation islets (stimulation index, insulin secretion high/low glucose)", "conditions": "ratio of insulin secretion high vs low glucose medium", "method": "Islets were isolated from over two years old pigs (n=3). After overnight culture, a known number of islets were incubated for 2 hours in culture medium supplemented with polyphenol (epigallocatechin-gallate (EGCg) with more than 98% purity) at concentrations of 0 (control), 30, 60, 120 ug/ml. Islets were suspended in the same volume of cryopreservation solution containing 12% hydroxyethyl starch (HES) and 10% dimethyl sulfoxide (DMSO) with 8% […] (FBS), and then cryopreserved using a program freezing system^3. After 4 weeks storage in liquid nitrogen, islets were rapidly thawed in a hot water bath. We assessed the results on recovery rate (islet yield after thawing/islet yield before freezing) following cryopreservation and after 48 hours of postcryopreservation tissue culture, viability and functionality. […] The stimulation index represents a ratio of insulin secretion between high-concentration glucose culture medium and low-concentration glucose culture medium."}, "Islets [2]": {"test_system": "Islets", "experiment": "Islet recovery rate after cryopreservation with polyphenol pre-incubation", "conditions": "for islet recovery rate following cryopreservation: 2 hours incubation before freezing, 4 weeks in liquid nitrogen; for islet recovery rate after 48 hours of postcryopreservation tissue culture: 48 hours culture after thawing", "method": "(§1) Islets were isolated from over two years old pigs (n=3). After overnight culture, a known number of islets were incubated for 2 hours in culture medium supplemented with polyphenol (epigallocatechin-gallate (EGCg) with more than 98% purity) at concentrations of 0 (control), 30, 60, 120 ug/ml. Islets were suspended in the same volume of cryopreservation solution containing 12% hydroxyethyl starch (HES) and 10% dimethyl sulfoxide (DMSO) with 8% […] (FBS), and then cryopreserved using a program freezing system^3. After 4 weeks storage in liquid nitrogen, islets were rapidly thawed in a hot water bath. We assessed the results on recovery rate (islet yield after thawing/islet yield before freezing) following cryopreservation and after 48 hours of postcryopreservation tissue culture, viability and functionality."}, "Islets [3]": {"test_system": "Islets", "experiment": "Viability of post-cryopreservation islets assessed using AO/PI", "conditions": "for viability assessed using AO/PI: post-cryopreservation", "method": "as §1"}},
  "data": [
    {"smiles": "O=C(O[C@@H]1Cc2c(O)cc(O)cc2O[C@@H]1c1cc(O)c(O)c(O)c1)c1cc(O)c(O)c(O)c1", "note": "[polyphenol, epigallocatechin-gallate]", "values": [
      {"measurement": "functionality indicated by stimulation index", "setting": "Islets [1]; 30 ug/ml polyphenol", "result": "1.4±0.2"},
      {"measurement": "functionality indicated by stimulation index", "setting": "Islets [1]; 60 ug/ml polyphenol", "result": "1.4±0.3"},
      {"measurement": "functionality indicated by stimulation index", "setting": "Islets [1]; 120 ug/ml polyphenol", "result": "0.9±0.3"},
      {"measurement": "islet recovery rate following cryopreservation", "setting": "Islets [2]; 30 ug/ml polyphenol", "result": "66.5±3.3", "unit": "%"},
      {"measurement": "islet recovery rate after 48 hours of postcryopreservation tissue culture", "setting": "Islets [2]; 30 ug/ml polyphenol", "result": "45.3±0.3", "unit": "%"},
      {"measurement": "islet recovery rate following cryopreservation", "setting": "Islets [2]; 60 ug/ml polyphenol", "result": "76.9±5.2", "unit": "%"},
      {"measurement": "islet recovery rate after 48 hours of postcryopreservation tissue culture", "setting": "Islets [2]; 60 ug/ml polyphenol", "result": "68.0±3.0", "unit": "%"},
      {"measurement": "islet recovery rate following cryopreservation", "setting": "Islets [2]; 120 ug/ml polyphenol", "result": "74.5±2.9", "unit": "%"},
      {"measurement": "islet recovery rate after 48 hours of postcryopreservation tissue culture", "setting": "Islets [2]; 120 ug/ml polyphenol", "result": "54.6±3.3", "unit": "%"},
      {"measurement": "viability assessed using AO/PI", "setting": "Islets [3]; 30 ug/ml polyphenol", "result": "83.1±1.2"},
      {"measurement": "viability assessed using AO/PI", "setting": "Islets [3]; 60 ug/ml polyphenol", "result": "85.9±2.5"},
      {"measurement": "viability assessed using AO/PI", "setting": "Islets [3]; 120 ug/ml polyphenol", "result": "84.4±1.0"},
      {"measurement": "viability following cryopreservation, compared with control", "setting": "Islets [3]; polyphenol group vs control group, p<0.01", "result": "significantly higher than the control group"}
    ]}
  ]
}
